Results as given in ChEMBL document CHEMBL1201862, “PubChem BioAssay data set” (2004).
Activity calls are given as the source filed them.

Experiments:
[1] = target: T1, Interleukin-8 (Homo sapiens, UniProt P10145); test: Dose Response confirmation of uHTS small molecule hits for cystic fibrosis induced NFkb Inhibitors in a PAF-induced IL8 counterscreen.; assay type: functional; settings: read-out: IC50_Mean
[2] = target: T1, Interleukin-8; test: Dose Response confirmation of uHTS small molecule hits for cystic fibrosis induced NFkb Inhibitors in a TNFa-induced IL8 counterscreen.; assay type: functional; settings: read-out: IC50_Mean
[3] = test system: HEK293; test: EBV LMP1 TES2 canonical NF-kB signalling blockers – cell-based, HEK293, luciferase, cherry-pick, dose response (AID 588343); assay type: functional; settings: Homo sapiens
[4] = target: T2, Beta-lactamase (Pseudomonas aeruginosa, UniProt Q79MP6); test: […] counterscreen for selective VIM-2 inhibitors: dose response biochemical high throughput screening assay to identify inhibitors of IMP-1 metallo-beta-lactamase.
[5] = target: Beta-lactamase (Salmonella choleraesuis (strain SC-B67), UniProt Q5J463); test: Epi-absorbance-based counterscreen for selective VIM-2 inhibitors: dose response biochemical high throughput screening assay to identify inhibitors of TEM-1 serine-beta-lactamase.
[6] = target: T2, Beta-lactamase; test: inhibition of IMP-1 beta-lactamase activity – biochemical, epi-absorbance, selectivity assay for VIM-2 inhibitor project, dose response (AID 1920)
[7] = loss of viability in HepG2 cells – cell-based, CellTiter-Glo, cherry-picked, cytotoxicity control for Shn3 inhibitor project, dose response (AID 624134); assay type: functional
[8] = general cell-killing toxicity readout – plate reader, dry powder samples, cytotoxicity control for PAX8 inhibitor project, dose response (AID 743021); assay type: functional, cell-based
[9] = target: T3, Streptokinase A (Streptococcus pyogenes serotype M1, UniProt P10520); test: viability-normalized secreted streptokinase activity reduction – plasminogen activation absorbance, OD405, dose response (AID 1914); assay type: functional, Streptococcus pyogenes M1 GAS;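 note: secreted streptokinase activity via plasminogen activation per viability signal from cell pellet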
T3 sequence (P10520 whole entry): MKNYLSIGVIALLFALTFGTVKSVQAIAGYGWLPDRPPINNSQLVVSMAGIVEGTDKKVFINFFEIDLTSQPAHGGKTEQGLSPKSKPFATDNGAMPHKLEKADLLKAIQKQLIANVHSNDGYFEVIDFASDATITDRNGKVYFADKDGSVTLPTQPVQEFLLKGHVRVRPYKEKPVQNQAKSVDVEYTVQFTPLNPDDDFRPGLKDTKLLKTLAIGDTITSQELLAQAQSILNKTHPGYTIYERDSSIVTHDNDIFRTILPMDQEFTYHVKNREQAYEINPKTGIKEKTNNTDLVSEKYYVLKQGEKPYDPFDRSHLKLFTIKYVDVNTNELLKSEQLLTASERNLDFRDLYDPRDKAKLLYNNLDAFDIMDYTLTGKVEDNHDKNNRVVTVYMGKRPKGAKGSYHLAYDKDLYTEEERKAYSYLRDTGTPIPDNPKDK

[10] = target: ATP-binding cassette sub-family B member 6 (Homo sapiens, UniProt Q9NP58); test: ABCB6 transporter inhibitors, porphyrin accumulation, dose response, flow cytometry, K562-ABCB6 cells, cherry pick 02 (AID 624487); assay type: functional; settings: read-out: EC50_MICROM
[11] = test system: Streptococcus sp. 'group A'; test: Streptococcus pyogenes SK(-)GAS viability under kanamycin – luminescence, BacTiterGlo, confirmation, counter-screen for streptokinase expression inhibitor project, dose response (AID 1900); assay type: functional, organism-based
[12] = test system: Streptococcus; test: GAS UMAA2166 growth inhibition – luminescence, BacTiterGlo, counter-screen for streptokinase expression inhibitor project, dose response (AID 1915); assay type: functional, organism-based;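 note: potency for reduction of bacterial viability or growth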
[13] = target: Paired box protein Pax-8 (Homo sapiens, UniProt Q06710); test: PAX8 transcriptional activity inhibition in RMG-I – RMG-I cells, luciferase, cherry-pick, dose response (AID 687027); assay type: functional, cell-based;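 note: luciferase reporter driven by Pax8 target thyroperoxidase promoter measured by SteadyGlo luminescence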
[14] = alpha-synuclein stem-loop luciferase translation blockers – H4 neuroglioma cells, luminescence, confirmation (AID 1988); assay type: functional, cell-based
[15] = reduction of Shn3 3'UTR-driven luciferase in osteoblasts – cell-based, Clone20 osteoblasts, firefly luciferase, cherry-picked, dose response (AID 624132); assay type: functional;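 note: firefly luciferase luminescence from reporter carrying the Shn3 3'UTR in osteoblasts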
[16] = non-specific 3'UTR reporter inhibition in Clone20-Shn3RL – cell-based, Renilla luciferase, cherry-picked, counter-screen for Shn3 inhibitor project, dose response (AID 624133); assay type: functional
[17] = luciferase reporter signal suppression in cells – H4 neuroglioma cells, luminescence, dose response (AID 1990); assay type: functional, cell-based
[18] = target: T4, Fatty acid synthase (Homo sapiens, UniProt P49327); test: inhibition of human FAS-TE enzyme activity – biochemical, endpoint fluorescence intensity, uHTS hits, dose response (AID 624327); assay type: functional;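 note: fluorescence from hydrolysis of an O-methyl fluorescein acyl ester substrate by the enzyme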
[19] = test system: INS1; test: INS-1E survival protection against cytokine death – cell-based, luminescence, retest, dose response (AID 449756); assay type: functional; settings: Rattus norvegicus;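 note: cell death triggered by IL-1 beta plus TNF-alpha plus IFN-gamma mixture; protective hits raise ATP signal compared with cytokine alone wells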
[20] = target: T4, Fatty acid synthase; test: inhibition of human FAS-TE enzyme activity – biochemical, kinetic fluorescence intensity, dose response (AID 624326); assay type: functional;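 note: rate of fluorescence rise from hydrolysis of a fluorogenic O-methyl fluorescein ester substrate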
[21] = Luminescence Cell-Based Dose Response HTS to Identify Inhibitors of 5'UTR Stem-Loop Driven Prion Protein mRNA Translation in H4 Neuroglioblastoma Cells. [Related pubchem assays: 1827 (Project Summary), 1813 (Primary HTS)]; assay type: functional
[22] = inhibition of ARNT PAS-B/TACC3 complex formation – biochemical, AlphaScreen, cherry-picked samples, confirmation (AID 651703); assay type: functional, Homo sapiens;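 note: His-tagged ARNT PAS-B domain paired with GST-TACC3 E629A dimer coactivator fragment; potency of inhibitors that break up the complex and lower AlphaScreen signal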
[23] = target: T5, Short transient receptor potential channel 4 (Mus musculus, UniProt Q9QUQ5); test: block of DAMGO-driven TRPC4 calcium entry – cell-based, HEK293 TRPC4/mu-opioid, Fluo-4 calcium, dose response (AID 434942); assay type: functional;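 note: potency of inhibitors blocking the TRPC4 calcium response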
T5 sequence (Q9QUQ5 whole entry): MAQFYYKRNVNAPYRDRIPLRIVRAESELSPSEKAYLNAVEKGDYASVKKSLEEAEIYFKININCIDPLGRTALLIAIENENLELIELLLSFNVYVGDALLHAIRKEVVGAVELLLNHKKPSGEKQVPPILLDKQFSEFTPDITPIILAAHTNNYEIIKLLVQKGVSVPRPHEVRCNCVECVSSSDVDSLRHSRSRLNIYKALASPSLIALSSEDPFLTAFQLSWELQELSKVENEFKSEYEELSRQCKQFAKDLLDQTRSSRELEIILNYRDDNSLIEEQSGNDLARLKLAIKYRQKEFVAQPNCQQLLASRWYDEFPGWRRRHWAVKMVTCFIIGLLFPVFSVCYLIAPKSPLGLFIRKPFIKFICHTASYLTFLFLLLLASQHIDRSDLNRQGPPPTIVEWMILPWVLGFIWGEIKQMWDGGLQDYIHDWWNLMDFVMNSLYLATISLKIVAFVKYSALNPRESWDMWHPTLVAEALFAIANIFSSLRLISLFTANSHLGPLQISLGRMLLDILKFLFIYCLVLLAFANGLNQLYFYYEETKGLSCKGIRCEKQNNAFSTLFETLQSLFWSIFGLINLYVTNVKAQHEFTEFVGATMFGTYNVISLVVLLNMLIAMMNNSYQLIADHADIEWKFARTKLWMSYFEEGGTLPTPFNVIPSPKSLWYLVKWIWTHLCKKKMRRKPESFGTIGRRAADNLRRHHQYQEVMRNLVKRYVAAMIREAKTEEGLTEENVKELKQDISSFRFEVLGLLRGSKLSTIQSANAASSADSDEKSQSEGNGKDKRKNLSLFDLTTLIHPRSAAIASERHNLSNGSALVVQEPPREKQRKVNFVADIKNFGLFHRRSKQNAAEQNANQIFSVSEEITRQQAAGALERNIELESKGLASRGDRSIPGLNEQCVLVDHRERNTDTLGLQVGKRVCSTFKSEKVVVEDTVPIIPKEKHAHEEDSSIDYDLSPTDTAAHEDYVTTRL

[24] = target: T5, Short transient receptor potential channel 4; test: calcium entry via TRPC4 opening agents – cell-based, HEK293 TRPC4/mu-opioid, Fluo-4 calcium, dose response (AID 434937); assay type: functional
[25] = target: T6, Rac GTPase-activating protein 1 (Homo sapiens, UniProt Q9H0H5); test: blockers of MgcRacGAP-driven Rac1 GTP hydrolysis – biochemical, ADP Hunter fluorescence, primary and confirmatory, confirmation (AID 624330); assay type: functional
T6 sequence (Q9H0H5 whole entry): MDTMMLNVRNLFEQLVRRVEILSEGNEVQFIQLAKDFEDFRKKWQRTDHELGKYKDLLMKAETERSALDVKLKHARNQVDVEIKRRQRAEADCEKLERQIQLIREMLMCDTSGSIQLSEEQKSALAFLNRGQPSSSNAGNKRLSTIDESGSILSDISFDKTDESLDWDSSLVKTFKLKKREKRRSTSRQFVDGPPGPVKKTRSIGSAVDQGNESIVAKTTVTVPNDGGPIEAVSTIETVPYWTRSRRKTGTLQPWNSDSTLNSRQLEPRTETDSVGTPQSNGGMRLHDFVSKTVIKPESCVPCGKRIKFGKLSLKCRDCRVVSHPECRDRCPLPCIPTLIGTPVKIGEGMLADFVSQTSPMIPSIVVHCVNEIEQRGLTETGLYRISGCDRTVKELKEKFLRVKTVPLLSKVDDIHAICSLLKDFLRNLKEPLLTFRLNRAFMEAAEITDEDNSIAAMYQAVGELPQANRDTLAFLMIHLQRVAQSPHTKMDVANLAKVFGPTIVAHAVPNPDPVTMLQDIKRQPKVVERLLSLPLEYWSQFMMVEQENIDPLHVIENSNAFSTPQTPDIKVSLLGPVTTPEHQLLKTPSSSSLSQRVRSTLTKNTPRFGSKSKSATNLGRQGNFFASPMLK

[26] = viability loss in HeLa cells – cytotoxicity control for MgcRacGAP inhibitor project, dose response (AID 624300); assay type: functional
[27] = target: Heat shock protein HSP 90-alpha (Homo sapiens, UniProt P07900); assay type: functional, organism-based
[28] = Fluorescence-based cell-based high throughput dose response assay for inhibitors of the interaction of nucleotide-binding oligomerization domain containing 2 (NOD2) and the receptor-interacting serine-threonine kinase 2 (RIPK2).; assay type: functional; settings: Homo sapiens
[29] = target: Beta Lactamase (Pseudomonas aeruginosa, UniProt Q932Y6); test: BLA reporter interference, concentration series – BLA reporter cells, FRET fluorescence, artefact control for NOD2-RIPK2 interaction inhibitor project, dose response (AID 651552); assay type: functional, cell-based
[30] = target: T7, Estrogen receptor beta (Homo sapiens, UniProt Q92731);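 note: recombinant ER-beta bound to coactivator SRC1 peptide in presence of estradiol agonist; inhibitors block coactivator peptide binding and lower the FRET signal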
[31] = target: T7, Estrogen receptor beta; test: blockers of SRC-3 recruitment to ERβ – biochemical, ELISA, streptavidin-HRP readout, orthogonal assay, confirmation (AID 1060)
[32] = target: T8, Small ubiquitin-related modifier 1 (Homo sapiens, UniProt P63165); test: SUMO1 protein interaction blockers, potency – biochemical, fluorescence polarization, uHTS hits, dose response (AID 624382); assay type: functional; settings: read-out: IC50_Mean
[33] = target: T8, Small ubiquitin-related modifier 1; test: SUMO1 protein-protein binding blockers, potency – biochemical, FRET, dose response (AID 624383); assay type: functional; settings: read-out: IC50_Mean
[34] = target: Estrogen receptor (Homo sapiens, UniProt P03372);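 note: potency for inhibiting coactivator peptide recruitment to the receptor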
[35] = target: Mu-type opioid receptor (Homo sapiens, UniProt P35372); assay type: functional, cell-based;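 note: U2OS cells with beta-arrestin recruitment to OPRM1 by beta-gal complementation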
[36] = target: 5-hydroxytryptamine receptor 2A (Mus musculus, UniProt P35363); assay type: functional, cell-based;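 note: CHO-K1 cells with tagged receptor and beta-arrestin; agonist potency measured as compound-induced activation of the receptor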
[37] = target: T9, Methionyl-tRNA synthetase, putative (Trypanosoma brucei brucei, UniProt Q38C91); assay type: functional, Trypanosoma brucei brucei strain 927/4 GUTat10.1
[38] = target: T9, Methionyl-tRNA synthetase, putative; assay type: functional, Trypanosoma brucei brucei strain 927/4 GUTat10.1; remark: listed apart in the source
[39] = Counterscreen for inhibitors of Trypanosoma brucei methionyl tRNA synthetase (MetRS): Luminescence-based cell-based high throughput dose response assay to identify compounds that are cytotoxic to Jurkat human T lymphocyte cells.; assay type: functional
[40] = activation of miR-122 Renilla sensor silencing – cell-based, Huh7 psiCHECK-miR122, Renilla luciferase, cherry-picked, dose response (AID 651956); assay type: functional;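 note: huh7 hepatoma cells stably carrying a psiCHECK-2 miR-122 sensor plasmid; renilla luciferase signal reporting endogenous miR-122 activity after 48 h compound exposure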

T9 sequence (Q38C91 whole entry): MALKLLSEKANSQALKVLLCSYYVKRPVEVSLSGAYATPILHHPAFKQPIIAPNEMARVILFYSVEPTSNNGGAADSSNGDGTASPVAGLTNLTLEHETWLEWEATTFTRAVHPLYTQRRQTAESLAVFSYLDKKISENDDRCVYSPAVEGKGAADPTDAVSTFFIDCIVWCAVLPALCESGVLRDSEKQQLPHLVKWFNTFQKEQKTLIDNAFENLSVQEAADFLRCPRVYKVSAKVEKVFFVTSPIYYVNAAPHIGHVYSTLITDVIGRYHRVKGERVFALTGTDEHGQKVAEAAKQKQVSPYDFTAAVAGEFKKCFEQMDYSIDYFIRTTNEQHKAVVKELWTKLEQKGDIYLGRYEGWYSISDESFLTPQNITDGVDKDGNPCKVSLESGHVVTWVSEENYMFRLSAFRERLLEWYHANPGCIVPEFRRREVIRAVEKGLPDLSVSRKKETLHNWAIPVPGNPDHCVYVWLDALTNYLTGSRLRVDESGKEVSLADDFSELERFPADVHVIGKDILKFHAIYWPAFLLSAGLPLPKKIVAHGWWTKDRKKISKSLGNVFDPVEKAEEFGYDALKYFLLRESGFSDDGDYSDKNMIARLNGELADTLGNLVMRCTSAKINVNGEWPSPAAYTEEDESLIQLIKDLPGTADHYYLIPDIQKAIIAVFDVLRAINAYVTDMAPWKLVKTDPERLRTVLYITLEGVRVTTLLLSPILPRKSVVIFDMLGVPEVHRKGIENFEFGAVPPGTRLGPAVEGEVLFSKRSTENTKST
T4 sequence (P49327 whole entry): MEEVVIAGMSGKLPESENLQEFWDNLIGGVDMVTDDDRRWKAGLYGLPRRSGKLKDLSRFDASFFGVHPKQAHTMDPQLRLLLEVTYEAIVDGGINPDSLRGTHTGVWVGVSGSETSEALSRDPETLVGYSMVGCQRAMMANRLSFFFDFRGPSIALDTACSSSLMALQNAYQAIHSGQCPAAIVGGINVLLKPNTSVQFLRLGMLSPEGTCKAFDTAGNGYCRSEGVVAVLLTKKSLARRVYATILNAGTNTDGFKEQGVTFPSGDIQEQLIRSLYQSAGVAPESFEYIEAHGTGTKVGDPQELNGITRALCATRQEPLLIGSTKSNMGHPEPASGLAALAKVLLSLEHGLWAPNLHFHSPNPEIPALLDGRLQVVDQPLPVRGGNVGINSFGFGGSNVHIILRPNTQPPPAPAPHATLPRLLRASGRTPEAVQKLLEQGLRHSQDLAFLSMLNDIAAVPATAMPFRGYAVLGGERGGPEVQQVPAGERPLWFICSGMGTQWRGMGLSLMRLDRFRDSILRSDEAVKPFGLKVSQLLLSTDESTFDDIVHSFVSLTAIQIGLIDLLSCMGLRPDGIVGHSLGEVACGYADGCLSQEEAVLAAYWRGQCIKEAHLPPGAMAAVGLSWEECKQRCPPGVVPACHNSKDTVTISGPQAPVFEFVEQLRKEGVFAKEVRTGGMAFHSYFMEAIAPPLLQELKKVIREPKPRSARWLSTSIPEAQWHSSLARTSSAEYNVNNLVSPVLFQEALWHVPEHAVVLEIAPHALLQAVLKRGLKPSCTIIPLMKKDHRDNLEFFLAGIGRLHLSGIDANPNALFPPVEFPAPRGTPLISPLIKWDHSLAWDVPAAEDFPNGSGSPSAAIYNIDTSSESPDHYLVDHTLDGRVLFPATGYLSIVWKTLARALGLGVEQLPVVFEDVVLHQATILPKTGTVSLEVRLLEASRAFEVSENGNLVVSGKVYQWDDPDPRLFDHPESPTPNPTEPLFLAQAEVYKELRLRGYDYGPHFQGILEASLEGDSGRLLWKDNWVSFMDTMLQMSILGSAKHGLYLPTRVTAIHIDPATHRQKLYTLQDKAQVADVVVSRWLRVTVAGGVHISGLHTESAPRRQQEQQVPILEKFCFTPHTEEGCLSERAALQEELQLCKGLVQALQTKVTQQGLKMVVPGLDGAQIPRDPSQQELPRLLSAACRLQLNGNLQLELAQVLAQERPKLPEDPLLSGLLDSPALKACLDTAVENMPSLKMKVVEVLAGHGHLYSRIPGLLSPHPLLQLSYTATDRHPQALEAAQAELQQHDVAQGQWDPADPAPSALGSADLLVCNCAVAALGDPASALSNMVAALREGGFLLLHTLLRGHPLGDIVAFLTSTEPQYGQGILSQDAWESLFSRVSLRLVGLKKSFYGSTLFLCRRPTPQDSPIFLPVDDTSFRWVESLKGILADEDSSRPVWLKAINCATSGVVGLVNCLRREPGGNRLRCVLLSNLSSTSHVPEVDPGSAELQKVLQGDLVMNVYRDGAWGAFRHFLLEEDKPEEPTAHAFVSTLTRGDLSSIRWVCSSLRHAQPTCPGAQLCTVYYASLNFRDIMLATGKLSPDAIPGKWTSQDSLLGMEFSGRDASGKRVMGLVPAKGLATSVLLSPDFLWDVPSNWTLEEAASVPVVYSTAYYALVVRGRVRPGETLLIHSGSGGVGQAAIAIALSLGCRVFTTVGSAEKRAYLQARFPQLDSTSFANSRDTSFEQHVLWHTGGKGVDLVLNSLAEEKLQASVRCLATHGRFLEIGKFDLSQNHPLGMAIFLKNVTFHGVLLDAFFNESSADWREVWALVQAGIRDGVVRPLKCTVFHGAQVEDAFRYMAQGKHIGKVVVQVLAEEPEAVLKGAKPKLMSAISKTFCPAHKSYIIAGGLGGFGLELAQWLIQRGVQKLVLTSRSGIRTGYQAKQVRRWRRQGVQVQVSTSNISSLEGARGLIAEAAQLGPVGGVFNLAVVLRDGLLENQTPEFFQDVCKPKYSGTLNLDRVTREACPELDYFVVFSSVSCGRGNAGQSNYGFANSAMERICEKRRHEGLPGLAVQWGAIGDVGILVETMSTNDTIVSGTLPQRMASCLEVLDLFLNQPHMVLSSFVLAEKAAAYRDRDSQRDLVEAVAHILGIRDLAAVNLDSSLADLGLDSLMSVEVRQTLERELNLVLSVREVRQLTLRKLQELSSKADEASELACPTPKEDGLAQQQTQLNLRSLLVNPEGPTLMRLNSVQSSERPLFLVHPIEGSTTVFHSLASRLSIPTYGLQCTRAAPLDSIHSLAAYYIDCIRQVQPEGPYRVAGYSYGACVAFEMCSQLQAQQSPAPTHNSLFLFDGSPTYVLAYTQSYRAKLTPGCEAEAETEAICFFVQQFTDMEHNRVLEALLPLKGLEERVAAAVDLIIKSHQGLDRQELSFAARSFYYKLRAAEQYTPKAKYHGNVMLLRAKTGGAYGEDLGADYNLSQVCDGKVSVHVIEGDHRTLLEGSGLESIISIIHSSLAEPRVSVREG
Chain of Paired box protein Pax-8 (Q06710 whole entry): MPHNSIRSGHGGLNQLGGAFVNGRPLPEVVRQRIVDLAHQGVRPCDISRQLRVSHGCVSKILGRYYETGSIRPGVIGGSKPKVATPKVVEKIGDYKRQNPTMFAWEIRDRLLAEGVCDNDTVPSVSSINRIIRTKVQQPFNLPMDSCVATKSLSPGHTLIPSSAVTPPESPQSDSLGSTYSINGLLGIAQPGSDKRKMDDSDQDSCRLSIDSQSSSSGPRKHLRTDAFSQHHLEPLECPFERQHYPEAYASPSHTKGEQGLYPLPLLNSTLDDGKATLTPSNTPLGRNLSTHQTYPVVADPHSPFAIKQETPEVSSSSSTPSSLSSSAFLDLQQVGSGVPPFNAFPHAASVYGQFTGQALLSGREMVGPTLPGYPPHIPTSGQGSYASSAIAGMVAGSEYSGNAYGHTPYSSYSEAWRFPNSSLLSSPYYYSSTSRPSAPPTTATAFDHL
T1 sequence (P10145 whole entry): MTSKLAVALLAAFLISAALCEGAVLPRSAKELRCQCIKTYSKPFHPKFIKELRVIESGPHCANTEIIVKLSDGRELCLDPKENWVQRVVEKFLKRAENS
T8 sequence (P63165 whole entry): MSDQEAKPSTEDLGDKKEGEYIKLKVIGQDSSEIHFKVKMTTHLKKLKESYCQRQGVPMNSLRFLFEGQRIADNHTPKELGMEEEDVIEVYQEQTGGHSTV
T7 sequence (Q92731 whole entry): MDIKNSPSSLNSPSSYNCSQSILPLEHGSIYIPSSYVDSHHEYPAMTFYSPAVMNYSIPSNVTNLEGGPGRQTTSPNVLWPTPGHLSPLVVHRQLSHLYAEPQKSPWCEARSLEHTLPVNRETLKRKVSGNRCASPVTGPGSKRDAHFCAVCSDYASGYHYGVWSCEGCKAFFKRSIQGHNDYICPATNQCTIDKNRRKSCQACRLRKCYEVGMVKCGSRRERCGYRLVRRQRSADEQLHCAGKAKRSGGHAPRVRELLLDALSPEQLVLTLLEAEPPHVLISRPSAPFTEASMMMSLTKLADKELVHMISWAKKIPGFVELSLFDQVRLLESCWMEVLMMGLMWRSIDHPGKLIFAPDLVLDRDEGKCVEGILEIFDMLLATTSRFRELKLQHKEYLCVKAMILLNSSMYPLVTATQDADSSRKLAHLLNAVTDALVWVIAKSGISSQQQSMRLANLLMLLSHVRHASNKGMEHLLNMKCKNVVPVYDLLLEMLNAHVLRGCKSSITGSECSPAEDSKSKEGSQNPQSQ
T2 sequence (Q79MP6 whole entry): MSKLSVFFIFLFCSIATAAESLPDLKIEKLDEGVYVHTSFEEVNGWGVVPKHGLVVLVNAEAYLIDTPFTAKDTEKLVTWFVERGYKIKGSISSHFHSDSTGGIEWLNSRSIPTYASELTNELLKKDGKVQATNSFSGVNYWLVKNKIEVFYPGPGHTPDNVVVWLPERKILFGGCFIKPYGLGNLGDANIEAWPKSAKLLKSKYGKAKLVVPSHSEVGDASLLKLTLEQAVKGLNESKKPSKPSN
Chain of Beta-lactamase (Salmonella choleraesuis (strain SC-B67), UniProt Q5J463) (Q5J463 whole entry): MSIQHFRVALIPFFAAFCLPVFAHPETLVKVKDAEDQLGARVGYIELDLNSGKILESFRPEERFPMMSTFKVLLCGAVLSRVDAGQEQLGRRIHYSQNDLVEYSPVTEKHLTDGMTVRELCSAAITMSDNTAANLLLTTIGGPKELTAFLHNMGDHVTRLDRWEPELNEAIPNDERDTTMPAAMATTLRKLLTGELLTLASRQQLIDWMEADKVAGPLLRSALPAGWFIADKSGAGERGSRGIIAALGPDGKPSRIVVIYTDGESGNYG

Cc1cc(N2CCOCC2)c2c(N)c(Br)cc(C)c2n1
IC50 [1]: 8.34 µM (active)
IC50 [2]: > 79 µM (inactive)
AC50 [3]: 8.08 µM (active)

NC(=O)SCC(=O)Nc1ccccc1C(=O)O
IC50 [4]: 24.1 µM (inactive)
IC50 [5]: > 59.6 µM (inactive)
IC50 [6]: > 59.6 µM (inactive)

CCOc1ccccc1NC(=O)c1nc(S(=O)(=O)Cc2cccc(C)c2)ncc1Cl
AC50 [7]: 18.8 µM (active)
AC50 [8]: 24.4 µM (active)
EC50 [9]: 1.28 µM (active)
EC50 [10]: 11.5 µM (active)
EC50 [11]: 12 µM (active)
EC50 [12]: 15.7 µM (active)
AC50 [13]: 7.71 µM (active)
EC50 [14]: 8.12 µM (active)
AC50 [15]: 0.324 µM (active)
AC50 [16]: 6.38 µM (active)
EC50 [17]: > 120 µM (not active)
IC50 [18]: 11.5 µM (active)
AC50 [19]: 5.15 µM (active)
IC50 [20]: 3.06 µM (active)
EC50 [21]: 10.9 µM (active)

COc1cccc(CNCc2ccccn2)c1OC
AC50 [22]: 116 µM (active)
EC50 [23]: 0.299 µM (active)
EC50 [24]: 0.267 µM (active)

O=C1/C(=C\c2ccc(Cl)c(Cl)c2)CN(C(=O)CCN2CCOCC2)C/C1=C/c1ccc(Cl)c(Cl)c1
IC50 [25]: 121 µM (active)
AC50 [13]: 2.65 µM (active)
CC50 [26]: 16.9 µM (active)
AC50 [27]: 2.98 µM (active)
IC50 [28]: 0.614 µM (active)
IC50 [29]: 31.4 µM (inactive)

Cc1nc2cc(-c3ccsc3-n3c(C)ccc3C)nn2c(O)c1Cl
IC50 [30]: 7.66 µM (active)
IC50 [31]: 1.53 µM (not active)
IC50 [32]: > 66.6 µM (inactive)
IC50 [33]: 10.7 µM (active)
IC50 [34]: 27.5 µM (active)

O=C(NCCCN1CCN(c2ccccc2F)CC1)C1CCC(=O)N1C1CCCCC1 (stereo unspecified)
EC50 [35]: 92.5 µM (inactive)
EC50 [36]: 76.1 µM (inactive)

Cc1cccc(NC(=O)CCNC(=O)c2ccc(Br)cc2)c1
IC50 [37]: 12.9 µM (inactive)
IC50 [38]: 5.8 µM (active)
IC50 [39]: 83.3 µM (inactive)

CC(C)OCCCNC(=O)c1ccncc1
AC50 [40]: 37.6 µM (active)
